Measured values reported in US20230119013A1, “N-CYANOPYRROLIDINES WITH ACTIVITY AS USP30 INHIBITORS” (MISSION THERAPEUTICS LIMITED, priority 2020, published 2023).
Like-named read-outs stand apart in the source and are kept apart here. Blank lines part the entries; values can stand above or below the compound they belong to.

How the values were obtained:
[1] = biological target: T1, UCHL1 (Homo sapiens, UniProt P09936); assay: DUB IC50 UCHL1; format: biochemical
T1 sequence (P09936 1-223): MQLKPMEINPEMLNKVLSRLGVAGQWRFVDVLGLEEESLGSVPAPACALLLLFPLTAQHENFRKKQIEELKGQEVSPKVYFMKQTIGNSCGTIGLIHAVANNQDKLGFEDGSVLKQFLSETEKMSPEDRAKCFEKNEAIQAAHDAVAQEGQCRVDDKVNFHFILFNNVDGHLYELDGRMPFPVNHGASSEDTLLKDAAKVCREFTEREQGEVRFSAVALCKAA

[2] = biological target: T2, USP30 (Homo sapiens, UniProt Q70CQ3); assay: USP30 biochemical IC50 assay (fluorescence polarisation)
T2 construct: purchased Boston Biochem E582
T2 sequence (Q70CQ3 57-517 limits assumed): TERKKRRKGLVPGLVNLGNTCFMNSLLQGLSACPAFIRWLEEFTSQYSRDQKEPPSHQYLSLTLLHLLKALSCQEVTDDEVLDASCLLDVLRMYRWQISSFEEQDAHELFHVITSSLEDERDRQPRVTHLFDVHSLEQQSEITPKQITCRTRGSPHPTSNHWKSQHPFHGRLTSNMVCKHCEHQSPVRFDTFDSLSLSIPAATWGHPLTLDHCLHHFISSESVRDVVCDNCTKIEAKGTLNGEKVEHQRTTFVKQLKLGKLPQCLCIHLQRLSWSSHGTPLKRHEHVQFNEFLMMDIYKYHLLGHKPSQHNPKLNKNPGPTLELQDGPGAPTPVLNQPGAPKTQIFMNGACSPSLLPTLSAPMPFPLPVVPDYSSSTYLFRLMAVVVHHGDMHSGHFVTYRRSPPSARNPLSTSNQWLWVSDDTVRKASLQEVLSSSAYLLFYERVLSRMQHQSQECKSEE
Protocol: Dilution plates were prepared at 21 times the final concentration (2100 μM for a final concentration of 100 μM) in 50% DMSO in a 96-well polypropylene V-bottom plate (Greiner #651201). A typical 8-point dilution series would be 100, 30, 10, 3, 1, 0.3, 0.1, 0.03 μM final. Reactions were performed in duplicate in black 384 well plates (small volume, Greiner 784076) in a final reaction volume of 21 μl. Either 1 μl of 50% DMSO or diluted compound was added to the plate. USP30 (Boston Biochem #E582) was diluted in reaction buffer (40 mM Tris, pH 7.5, 0.005% Tween 20, 0.5 mg/ml BSA, 5 mM beta-mercaptoethanol) to achieve a final assay concentration of 4 nM, and 10 μl of diluted USP30 was added to the compound. Enzyme and compound were incubated for 30 min at room temp. Reactions were initiated by the addition of 50 nM of TAMRA labelled peptide linked to ubiquitin via an iso-peptide bond as fluorescence polarisation substrate. Reactions were read immediately after addition of substrate and following a 2-hour incubation at room temperature. Readings were performed on a Pherastar Plus (BMG Labtech). λ Excitation 540 nm; Emission 590 nm.

[3] = Mouse plasma stability; format: in vitro ADME; conditions: read-out: Stability Mouse plasma t1/2
[4] = Plasma free fraction by equilibrium dialysis; format: in vitro ADME; conditions: mouse plasma; read-out: Binding Mouse Plasma fu, p
Source text: (§1) log P: partition coefficient; lipophilicity measurement. log D: distribution co-efficient; lipophilicity measurement. TPSA: topological polar surface area. Turbidimetric solubility: Test compound solution prepared in DMSO diluted into aqueous buffer. Turbidimetry is used as the end-point by measuring absorbance at 620 nm. FaSSIF: simulated intestinal fluid in fasted state measured at pH 6.5. Hep Cl mouse: in vitro hepatocyte clearance in mouse cells. Hep Cl human: in vitro hepatocyte clearance in human cells. Plasma fu,p: The free fraction of a compound in plasma preparation determined by in vitro equilibrium dialysis. It is understood that only unbound (free) compound is capable of engaging with the target. Brain fu,br: The free fraction of a compound in brain homogenate preparation determined by in vitro equilibrium dialysis. It is understood that only unbound (free) compound is capable of engaging with the target. Clu: in vitro clearance. Clu as defined here is the scaled clearance, in turn calculated from the intrinsic clearance. The intrinsic clearance is the predicted clearance due to hepatic metabolic reactions, determined from incubation of a compound in a hepatocyte preparation. […] Cl in vivo clearance: Pharmacokinetic measurement of the volume of plasma (or any matrix) from which a substance is completely removed per unit time.

[5] = test system: HCT116 human colorectal carcinoma cells; assay: In vitro cytotoxicity (Cell Tox), alamarBlue; format: cell-based; conditions: HCT-116, 96-hour continual compound exposure
Protocol: In Vitro Cytotoxicity (Cell Tox): Measured in HCT116 human colorectal carcinoma cells using alamarBlue™ as the assay endpoint. Compound cytotoxicity was measured over a period of 96-hour continual compound exposure.

[6] = test system: TOM20 ubiquitylation; assay: TOM20-ubiquitylation assay; format: cell-based, human; conditions: antimycin A/oligomycin mitophagy trigger
Source text: Human cell lines can be challenged with mitochondrial depolarizing agents (ionophores (eg. CCCP, valinomycin), mitochondrial complex inhibitors (oligomycin, antimycin A)) to induce ubiquitylation of TOM20, which is then further promoted in the presence of USP30 inhibitors. TOM20 ubiquitylation is subsequently assessed through western blotting of the cell lysates, with TOM20 ubiquitylation adduct detection possible due to an 8 kDa molecule weight increase for each molecule of ubiquitin added, resulting in laddering of a TOM20 immunoreactive band. TOM20-ubiquitylation levels can be quantified using chemiluminescence densitometry of laddered immunoreactive bands.

[7] = test system: hepatocyte; assay: Hepatocyte clearance mouse; format: in vitro ADME; conditions: mouse hepatocytes
Source text: as §1

[8] = test system: T3, USP2, USP10, USP16, USP21, USP22, USP25, USP28; assay: DUB IC50, seven DUBs; format: biochemical; conditions: range over the seven DUBs
T3 construct: DUB IC50 (μM) USP2, USP10, USP16, USP21, USP22, USP25, USP28; other: range over the seven DUBs

[9] = test system: USP2, USP10, USP16, USP21, USP22, USP25, USP28; assay: DUB IC50, seven DUBs; format: biochemical; conditions: for DUB selectivity preference for USP30 v 7 DUBs: range over the seven DUBs
[10] = test system: cathepsins B, K, L, S and V; assay: Cathepsin IC50, summary over B, K, L, S, V; format: biochemical; conditions: K, L
[11] = test system: T4, cathepsins B, K, L, S and V; assay: Cathepsin IC50, summary over B, K, L, S, V; format: biochemical; conditions: range over the five cathepsins
T4 construct: Cathepsin IC50 (μM) B, K, L, S, V; other: range over the five cathepsins

SMILES: N#Cc1ccc(-c2cnc(NC(=O)[C@H]3CCN(C#N)C3)s2)cc1OC(F)(F)F [B, reference compound]
DUB selectivity preference for USP30 v UCHL1 [1]: 4.5
IC50 [1]: 0.77 µM
fold more potent against USP30 than UCHL1 [1]: 4.5 fold
IC50 ([2]; read-out: DUB IC50 (μM) USP30): 0.172 µM
IC50 ([2]; read-out: USP30 IC50): 0.172 µM

SMILES: N#CN1CC[C@H](C(=O)Nc2ncc(-c3ccccc3)s2)C1 [C, reference compound]
fold more potent against USP30 than UCHL1 [1]: 0.8 fold

SMILES: CC1CC(C(=O)Nc2ncc(-c3ccccc3)s2)CN1C#N (stereo not drawn) [D, reference compound]
fold more potent against USP30 than UCHL1 [1]: 1.5 fold

Second part, led by results:

DUB selectivity preference for USP30 v UCHL1 [1]: 37500
IC50 [1]: > 300 µM
half-life [3]: > 2 h
fraction unbound [4]: 0.036
fold more potent against USP30 than Reference Example A ([2]; biochemical assay): 9 fold
fold more potent against USP30 than Reference Example B ([2]; biochemical assay): 22 fold
fold more potent against USP30 than Reference Example C ([2]; biochemical assay): 39 fold
fold more potent against USP30 than Reference Example D ([2]; biochemical assay): 550 fold
IC50 ([2]; read-out: USP30 IC50): 0.008 µM
Hepatocyte Cl mouse scaled Clu [7]: 97.4 mL/min/kg
IC50 [8]: > 300 µM
SMILES: COC[C@H]1C[C@@H](NC(=O)c2ncc(-c3cccc(OC(F)(F)F)c3)o2)CN1C#N [Example 3, N-((3R,5R)-1-Cyano-5-(methoxymethyl)pyrrolidin-3-yl)-5-(3-(trifluoromethoxy)phenyl)oxazole-2-carboxamide]
EC50 [5]: 23900 nM
TOM20-Ub 1.5-fold gain EC1.5x (μM) [6]: 0.210 (n = 1) μM
DUB selectivity preference for USP30 v 7 DUBs [9]: >37500

IC50 [11]: 0.79 to 8.8 µM
IC50 [8]: 0.19 to 9.9 µM
SMILES: COc1cccc(-c2cc(C(=O)N[C@@H]3CCN(C#N)C3)on2)c1 [Reference Example A, reference compound]
fold more potent against USP30 than against each of the cathepsins, at a minimum ([10]; cathepsins B, S and V): 11 fold
Selectivity preference for USP30 v cathepsins ([10]; range over cathepsins B, S, V): 11-126
fold more potent against USP30 than against each of the seven DUBs, at a minimum ([9]; USP2, USP10, USP16, USP21, USP22, USP25 and USP28): 2.7 fold
DUB selectivity preference for USP30 v 7 DUBs [9]: 2.7-141
